# What was measured:
# Type in all cases: functional
# Streptococcus pyogenes [1] = assay: Concentration required to inhibit Streptococcus pyogenes 930CONST stain by standard agar dilution method.
# Streptococcus pyogenes [2] = assay: Concentration required to inhibit Streptococcus pyogenes 2548 INDUC stain by standard agar dilution method.
# Burkholderia cepacia = assay: Concentration required to inhibit Pseudomonas cepacia 2961 stain by standard agar dilution method.
# Klebsiella aerogenes = assay: Concentration required to inhibit Enterobacter aerogenes ATCC 13048 stain by standard agar dilution method.
# Streptococcus pyogenes [3] = assay: Concentration required to inhibit Streptococcus pyogenes EES61 stain by standard agar dilution method.
# Streptococcus equinus = assay: Concentration required to inhibit Streptococcus bovis A5169 stain by standard agar dilution method.
# Pseudomonas aeruginosa [4] = assay: Concentration required to inhibit Pseudomonas aeruginosa K799/WT stain by standard agar dilution method.
# [5] = system: Acinetobacter calcoaceticus; assay: Concentration required to inhibit Acinetobacter calcoaceticus CMX669 stain by standard agar dilution method.
# Enterococcus faecium = assay: Concentration required to inhibit Enterococcus faecium ATCC 8043 stain by standard agar dilution method.
# Staphylococcus aureus [6] = assay: Concentration required to inhibit 45 stain Staphylococcus aureus 45 by standard agar dilution method.
# [7] = system: Staphylococcus epidermidis; assay: Concentration required to inhibit Staphylococcus epidermis 3519 stain by standard agar dilution method.
# Klebsiella pneumoniae = assay: Concentration required to inhibit Klebsiella pneumoniae ATCC 8045 stain by standard agar dilution method.
# Micrococcus luteus [8] = assay: Concentration required to inhibit Micrococcus luteus ATCC 9341 stain by standard agar dilution method.
# Escherichia coli [9] = assay: Concentration required to inhibit Escherichia coli JUHL stain by standard agar dilution method.
# Staphylococcus aureus [10] = assay: Concentration required to inhibit Staphylococcus aureus ATCC 6538P stain by standard agar dilution method
# Escherichia coli [11] = assay: Concentration required to inhibit Escherichia coli H 560 stain by standard agar dilution method.
# Micrococcus luteus [12] = assay: Concentration required to inhibit Micrococcus luteus ATCC 4698 stain by standard agar dilution method.
# Streptococcus agalactiae = assay: Concentration required to inhibit Streptococcus agalactiae CMX508 stain by standard agar dilution method.
# Pseudomonas aeruginosa [13] = assay: Concentration required to inhibit Pseudomonas aeruginosa K799/61 stain by standard agar dilution method.
# Staphylococcus aureus [14] = assay: Concentration required to inhibit CMX553 Staphylococcus aureus CMX553 stain by standard agar dilution method
# Escherichia coli [15] = assay: Concentration required to inhibit Escherichia coli DC-2 stain by standard agar dilution method.
# Escherichia coli [16] = assay: Concentration required to inhibit Escherichia coli SS stain by standard agar dilution method.
# Escherichia coli [17] = assay: Concentration required to inhibit Escherichia coli KNK 437 stain by standard agar dilution method.
MIC (Streptococcus pyogenes [1]),MIC (Streptococcus pyogenes [2]),MIC (Burkholderia cepacia),MIC (Klebsiella aerogenes),MIC (Streptococcus pyogenes [3]),MIC (Streptococcus equinus),MIC (Pseudomonas aeruginosa [4]),MIC [5],MIC (Enterococcus faecium),MIC (Staphylococcus aureus [6]),MIC [7],MIC (Klebsiella pneumoniae),MIC (Micrococcus luteus [8]),MIC (Escherichia coli [9]),MIC (Staphylococcus aureus [10]),MIC (Escherichia coli [11]),MIC (Micrococcus luteus [12]),MIC (Streptococcus agalactiae),MIC (Pseudomonas aeruginosa [13]),MIC (Staphylococcus aureus [14]),Compound,also measured
> 100 µg/mL,100 µg/mL,> 100 µg/mL,50 µg/mL,0.05 µg/mL,0.1 µg/mL,> 100 µg/mL,12.5 µg/mL,0.2 µg/mL,0.78 µg/mL,0.39 µg/mL,25 µg/mL,0.1 µg/mL,50 µg/mL,0.39 µg/mL,12.5 µg/mL,0.1 µg/mL,0.1 µg/mL,12.5 µg/mL,0.78 µg/mL,CC[C@H]1OC(=O)[C@H](C)[C@@H](O[C@H]2C[C@@](C)(OC)[C@@H](O)[C@H](C)O2)[C@H](C)[C@@H](O[C@@H]2O[C@H](C)C[C@H](N(C)C)[C@H]2O)[C@@](C)(O)C[C@@H](C)[C@@H](N(C)C)[C@H](C)[C@@H](O)[C@]1(C)O,MIC (Escherichia coli [15]): 25 µg/mL; MIC (Escherichia coli [16]): 0.1 µg/mL; MIC (Escherichia coli [17]): 50 µg/mL
> 100 µg/mL,100 µg/mL,> 100 µg/mL,> 100 µg/mL,1.56 µg/mL,3.1 µg/mL,> 100 µg/mL,> 100 µg/mL,12.5 µg/mL,25 µg/mL,25 µg/mL,> 100 µg/mL,6.2 µg/mL,> 100 µg/mL,25 µg/mL,25 µg/mL,3.1 µg/mL,3.1 µg/mL,50 µg/mL,25 µg/mL,CC[C@H]1OC(=O)[C@H](C)[C@@H](O[C@H]2C[C@@](C)(OC)[C@@H](O)[C@H](C)O2)[C@H](C)[C@@H](O[C@@H]2O[C@H](C)C[C@H](N(C)C)[C@H]2O)[C@@](C)(O)C[C@@H](C)[C@@H](N(C)C)[C@H](C)[C@@H](O)[C@@]1(O)CO,MIC (Escherichia coli [15]): 50 µg/mL; MIC (Escherichia coli [16]): 1.56 µg/mL; MIC (Escherichia coli [17]): > 100 µg/mL
> 100 µg/mL,6.2 µg/mL,> 100 µg/mL,> 100 µg/mL,0.05 µg/mL,0.02 µg/mL,> 100 µg/mL,12.5 µg/mL,0.02 µg/mL,0.78 µg/mL,0.39 µg/mL,100 µg/mL,0.1 µg/mL,100 µg/mL,0.78 µg/mL,25 µg/mL,0.1 µg/mL,0.05 µg/mL,12.5 µg/mL,0.78 µg/mL,CC[C@H]1OC(=O)[C@H](C)[C@@H](O[C@H]2C[C@@](C)(OC)[C@@H](O)[C@H](C)O2)[C@H](C)[C@@H](O[C@H]2O[C@H](C)C[C@H](N(C)C)[C@H]2O)[C@@](C)(O)C[C@@H](C)[C@@H](N(C)C)[C@H](C)[C@@H](O)[C@@]12CO2,MIC (Escherichia coli [15]): 50 µg/mL; MIC (Escherichia coli [16]): 0.39 µg/mL; MIC (Escherichia coli [17]): 100 µg/mL
> 100 µg/mL,50 µg/mL,100 µg/mL,100 µg/mL,0.39 µg/mL,0.78 µg/mL,50 µg/mL,3.1 µg/mL,1.56 µg/mL,6.2 µg/mL,6.2 µg/mL,50 µg/mL,0.78 µg/mL,> 100 µg/mL,6.2 µg/mL,25 µg/mL,0.78 µg/mL,0.78 µg/mL,1.56 µg/mL,6.2 µg/mL,CC[C@H]1OC(=O)[C@H](C)[C@@H](O[C@H]2C[C@@](C)(OC)[C@@H](O)[C@H](C)O2)[C@H](C)[C@@H](O[C@@H]2O[C@H](C)C[C@H](N(C)C)[C@H]2O)[C@@](C)(O)C[C@@H](C)[C@@H](N(C)C)[C@H](C)[C@@H](O)[C@H]1CO,MIC (Escherichia coli [15]): 50 µg/mL; MIC (Escherichia coli [16]): 0.39 µg/mL; MIC (Escherichia coli [17]): 100 µg/mL

# Source: ChEMBL document CHEMBL1125223, “Synthesis and antibacterial activities of C-21 functionalized derivatives of (9R)-9-amino-9-deoxoerythromycins A and B” (1991)
